Laboratory results: US20220235065A1 (Epizyme, Inc., priority 2016, published 2022)

Experiments:
EHMT1 = target: T1, EHMT1 (Homo sapiens, UniProt Q9H9B1); assay: EHMT1 PEP (EHMT1 peptide enzyme assay); format: biochemical; settings: peptide substrate enzyme assay
T1 sequence (Q9H9B1 1-1298): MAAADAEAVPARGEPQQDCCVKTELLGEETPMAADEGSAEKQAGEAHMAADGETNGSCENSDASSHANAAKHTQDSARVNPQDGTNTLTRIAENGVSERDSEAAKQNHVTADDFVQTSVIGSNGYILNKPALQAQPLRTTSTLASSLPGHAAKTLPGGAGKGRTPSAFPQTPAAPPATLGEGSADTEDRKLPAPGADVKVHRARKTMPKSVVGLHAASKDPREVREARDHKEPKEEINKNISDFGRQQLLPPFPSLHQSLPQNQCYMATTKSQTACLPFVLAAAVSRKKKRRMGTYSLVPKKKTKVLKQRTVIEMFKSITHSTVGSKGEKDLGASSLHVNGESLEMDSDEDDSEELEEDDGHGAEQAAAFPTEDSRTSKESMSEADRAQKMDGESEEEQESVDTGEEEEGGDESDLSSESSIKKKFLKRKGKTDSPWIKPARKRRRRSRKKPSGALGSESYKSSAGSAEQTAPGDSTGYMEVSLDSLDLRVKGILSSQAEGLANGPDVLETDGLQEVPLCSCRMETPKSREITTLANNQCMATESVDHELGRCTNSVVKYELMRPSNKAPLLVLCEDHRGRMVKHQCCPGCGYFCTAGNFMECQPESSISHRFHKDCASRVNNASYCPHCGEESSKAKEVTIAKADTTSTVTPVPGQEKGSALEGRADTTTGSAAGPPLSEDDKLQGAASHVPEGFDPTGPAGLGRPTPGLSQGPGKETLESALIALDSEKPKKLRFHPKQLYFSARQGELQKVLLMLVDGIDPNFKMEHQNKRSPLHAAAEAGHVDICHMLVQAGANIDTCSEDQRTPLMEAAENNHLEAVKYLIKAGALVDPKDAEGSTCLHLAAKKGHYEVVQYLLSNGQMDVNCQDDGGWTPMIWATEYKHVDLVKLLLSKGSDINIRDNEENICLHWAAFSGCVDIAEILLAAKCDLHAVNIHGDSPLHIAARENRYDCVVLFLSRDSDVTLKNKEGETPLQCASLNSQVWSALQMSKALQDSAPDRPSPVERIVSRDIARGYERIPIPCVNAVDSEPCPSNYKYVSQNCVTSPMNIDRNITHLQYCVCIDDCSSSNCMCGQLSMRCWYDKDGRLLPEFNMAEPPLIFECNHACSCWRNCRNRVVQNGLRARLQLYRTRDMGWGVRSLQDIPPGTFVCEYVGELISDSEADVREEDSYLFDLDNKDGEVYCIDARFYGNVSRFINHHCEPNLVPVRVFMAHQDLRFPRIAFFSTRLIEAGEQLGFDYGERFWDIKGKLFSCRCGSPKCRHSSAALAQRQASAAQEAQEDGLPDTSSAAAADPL

[1] = tested on: H3K9me2 in MDA-MB-231 cells; assay: MDA-MB-231 H3K9me2 in-cell western assay; format: cell-based; settings: Homo sapiens, read-out: EHMT2 ICW (IC50 μM)
Procedure, shortened: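 MDA-MB-231 cells (3,000/well) exposed to compound for two consecutive 48 h periods at 37 °C, then fixed and stained for H3K9me2, with DRAQ5 as DNA stain and infrared read at 700/800 nm. Percent inhibition was set between DMSO and UNC0638 control wells. IC50 came from triplicate dose–response fits with a four-parameter model, top 100%, bottom 0%.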

| Compound | IC50 (EHMT1) [µM] | IC50 [1] [µM] |
| --- | --- | --- |
| CNc1cc(C)nc(Nc2ccc(OC)c(-n3cc4c(C)nccc4n3)c2)n1 [Compound 99] | 1 to 10 | 1 to 10 |
| CNc1cc(C)nc(Nc2ccc(OC)c(-n3cc(C)c(CN(C)C)n3)c2)n1 [Compound 102] | 0.1 to 1 | 1 to 10 |
| CNC(=O)N1CC(CNc2cc(C)nc(Nc3ccc(OC)c(-n4cc5c(n4)CCN(C)C5)c3)n2)C1 [Compound 88] | 0.1 to 1 | > 10 |
| CCn1cc(NC(=O)c2cc(Nc3nc(C)cc(NC)n3)ccc2OC)cn1 [Compound 49] | > 10 | > 10 |
| CNc1cc(C)nc(Nc2ccc(OC)c(-n3ccc(CN(C)C(C)=O)n3)c2)n1 [Compound 96] | > 10 | > 10 |
| CNc1cc(C)nc(Nc2ccc(OC)c(-n3cc(C)c4c3CCN(C)C4)c2)n1 [Compound 81] | 1 to 10 | 1 to 10 |
| CNc1cc(C)nc(Nc2ccc(OC)c(-c3nnc4n3CCN(C(=O)OC(C)(C)C)C4)c2)n1 [Compound 77] | > 10 | > 10 |
| CNc1cc(C)nc(Nc2cc(-n3cc4c(n3)CCN(C)C4)c(OC)cn2)n1 [Compound 65] | 1 to 10 | > 10 |
| CNc1cc(C)nc(Nc2ccc(OC)c(-n3ccc(CNC(C)=O)n3)c2)n1 [Compound 95] | > 10 | > 10 |
| CNCc1c(C)nn(-c2cc(Nc3nc(C)cc(NC)n3)ccc2OC)c1C [Compound 106] | > 10 | > 10 |
| CNc1cc(C)nc(Nc2ccc(OC)c(-n3cc4cc(C)ccc4n3)c2)n1 [Compound 144] | 1 to 10 | > 10 |
| CNc1cc(C)nc(Nc2ccc(OC)c(-c3ccc4cc[nH]c4n3)c2)n1 [Compound 42] | > 10 | > 10 |
| CNc1cc(C)nc(Nc2cnc(OC)c(-c3nc4cnccn4n3)c2)n1 [Compound 60] | 1 to 10 | 1 to 10 |
| CNc1cc(C)nc(Nc2ccc(OC)c(-n3cc4c(n3)CCOC4)c2)n1 [Compound 43] | 1 to 10 | > 10 |
| CNc1cc(C)nc(Nc2ccc(OC)c(-n3cc(CN(C)C)cn3)c2)n1 [Compound 109, N2-(3-(4-((dimethylamino)methyl)-1H-pyrazol-1-yl)-4-methoxyphenyl)-N4,6-dimethylpyrimidine-2,4-diamine] | < 0.1 | < 0.1 |
| CNc1cc(C)nc(Nc2cnc(OC)c(-n3cc4c(n3)CCNC4)c2)n1 [Compound 50] | 0.1 to 1 | > 10 |

Now from value to molecule:

| IC50 (EHMT1) [µM] | IC50 [1] [µM] | Compound |
| --- | --- | --- |
| > 10 | > 10 | CNc1cc(C)nc(Nc2ccc(OC)c(-n3nnc(C)c3CN(C)C)c2)n1 [Compound 138] |
| < 0.1 | 0.1 to 1 | CNc1cc(C)nc(Nc2ccc(OC)c(-n3cc(CN(C)C)nn3)c2)n1 [Compound 66] |
| 0.1 to 1 | 1 to 10 | CCN1CCc2nn(-c3cc(Nc4nc(C)cc(NC)n4)ccc3OC)cc2C1 [Compound 70] |
| 1 to 10 | > 10 | CNc1cc(C)nc(Nc2ccc(OC)c(-c3nnc(CN(C)C)[nH]3)c2)n1 [Compound 73] |
| < 0.1 | 0.1 to 1 | CNc1cc(C)nc(Nc2ccc(OC)c(-n3ncc4c3CCNC4)c2)n1 [Compound 113, N2-(4-methoxy-3-(4,5,6,7-tetrahydro-1H-pyrazolo[4,3-c]pyridin-1-yl)phenyl)-N4,6-dimethylpyrimidine-2,4-diamine] |
| 0.1 to 1 | 0.1 to 1 | CNc1cc(C)nc(Nc2ccc(OC)c(-n3cc(CN4CCC4)nn3)c2)n1 [Compound 121] |
| 0.1 to 1 | > 10 | CNc1cc(C)nc(Nc2ccc(OC)c(-n3cc4c(n3)CN(C)CC4)c2)n1 [Compound 3] |
| > 10 | > 10 | CNc1cc(C)nc(Nc2ccc(OC)c(-n3nnc(CN(C)C)c3C)c2)n1 [Compound 139] |
